Experimental data: US20110166149A1, “PTERIDINE DERIVATIVES FOR TREATING RESPIRATORY DISEASE” (TARGEGEN INC., priority 2008, published 2011)

Assays:
[1] = tested on: ovalbumin (OVA) challenged mice; test: Mouse airway resistance, methacholine challenge (Example 4); format: in vivo; details: aerosolized formulations, FIG. 4
Experimental: A series of compositions for pulmonary delivery were prepared by first preparing a 20% suspension of compound A in a 5% tyloxapol solution in water. Particle size reduction was achieved using a colloid mill (magicLAB®, MK module, for 6 hours @ 12,000 rpm, while maintaining a temperature below 50° C.). Samples at 4% compound A were prepared by dilution with DI water. A 0.4% compound A suspension in 0.1% tyloxapol solution was made by dilution with SWFI (6.02 g of the 20% suspension was QS to 30.23 g with SWFI) and the following suspensions were also prepared: • […] in 0.01% tyloxapol solution: 2.52 g of a 0.4% compound A suspension was diluted to 100 g with SWFI water. • 0.01% compound A suspension in 0.01% tyloxapol solution: 10 g of a 0.1% compound A suspension was diluted to 100 g with SWFI water. • 0.001% compound A suspension in 0.01% tyloxapol solution 3: 10 g of a 0.1% compound A suspension was diluted to 100 g with SWFI water. […] Airway resistance in the model is induced via a methacholine challenge. Airway resistance is both a diagnostic and a hallmark of respiratory diseases such as asthma and COPD and the reduction of airway resistance is considered a beneficial outcome.

[2] = Stability / precipitation of compound A solutions at pH ~3 (Examples 5, 6); format: physicochemical
Experimental: 36 mg of compound A was dissolved with the aid of 0.5 N HCl (QS to 1 g) under mixing and heat. 200 μL of this solution was mixed using a sonicator bath, if necessary with a separately prepared solution containing 1.8 mg of a 0.02% tyloxapol/2% PVP 90F and 34 μL of a 2 N NaOH, to give a final concentration of ˜3.3 mg/mL of compound A at a pH of ˜3. […] 200 μL of the above solution was mixed using a sonicator bath, if necessary with a solution containing 1.8 mg of a 0.02% tyloxapol/2% PVP 90F and 10 μL of a 2 N NaOH, to give a final concentration of ˜5 mg/mL of compound A at a pH of ˜3. This solution will start precipitating ˜20 min.

Q: Which airway resistance [1] does the source give for `Nc1nc(N)c2nc(-c3cccc(O)c3)c(-c3cccc(O)c3)nc2n1` [Compound A, 6,7-bis(3-hydroxyphenyl)-pteridine-2,4-diamine] here?
A: Its airway resistance is “reduced airway resistance”.

Q: And the solution stability ([2]; ~3.3 mg/mL, pH ~3, tyloxapol/PVP 90F (Example 5))?
A: The solution stability was “stable for more than an hour”.

Q: And the “time to start of precipitation” value ([2]; ~5 mg/mL, pH ~3, tyloxapol/PVP 90F (Example 6))?
A: The value was ~20 min.
